The values that follow come from article doi:10.1101/2021.02.21.432137v1 (biorxiv, 2021).

SMILES strings stand for the structures.

The target of one assay is T1, JAK3 (Homo sapiens, UniProt P52333).
T1 sequence (P52333 1-1124): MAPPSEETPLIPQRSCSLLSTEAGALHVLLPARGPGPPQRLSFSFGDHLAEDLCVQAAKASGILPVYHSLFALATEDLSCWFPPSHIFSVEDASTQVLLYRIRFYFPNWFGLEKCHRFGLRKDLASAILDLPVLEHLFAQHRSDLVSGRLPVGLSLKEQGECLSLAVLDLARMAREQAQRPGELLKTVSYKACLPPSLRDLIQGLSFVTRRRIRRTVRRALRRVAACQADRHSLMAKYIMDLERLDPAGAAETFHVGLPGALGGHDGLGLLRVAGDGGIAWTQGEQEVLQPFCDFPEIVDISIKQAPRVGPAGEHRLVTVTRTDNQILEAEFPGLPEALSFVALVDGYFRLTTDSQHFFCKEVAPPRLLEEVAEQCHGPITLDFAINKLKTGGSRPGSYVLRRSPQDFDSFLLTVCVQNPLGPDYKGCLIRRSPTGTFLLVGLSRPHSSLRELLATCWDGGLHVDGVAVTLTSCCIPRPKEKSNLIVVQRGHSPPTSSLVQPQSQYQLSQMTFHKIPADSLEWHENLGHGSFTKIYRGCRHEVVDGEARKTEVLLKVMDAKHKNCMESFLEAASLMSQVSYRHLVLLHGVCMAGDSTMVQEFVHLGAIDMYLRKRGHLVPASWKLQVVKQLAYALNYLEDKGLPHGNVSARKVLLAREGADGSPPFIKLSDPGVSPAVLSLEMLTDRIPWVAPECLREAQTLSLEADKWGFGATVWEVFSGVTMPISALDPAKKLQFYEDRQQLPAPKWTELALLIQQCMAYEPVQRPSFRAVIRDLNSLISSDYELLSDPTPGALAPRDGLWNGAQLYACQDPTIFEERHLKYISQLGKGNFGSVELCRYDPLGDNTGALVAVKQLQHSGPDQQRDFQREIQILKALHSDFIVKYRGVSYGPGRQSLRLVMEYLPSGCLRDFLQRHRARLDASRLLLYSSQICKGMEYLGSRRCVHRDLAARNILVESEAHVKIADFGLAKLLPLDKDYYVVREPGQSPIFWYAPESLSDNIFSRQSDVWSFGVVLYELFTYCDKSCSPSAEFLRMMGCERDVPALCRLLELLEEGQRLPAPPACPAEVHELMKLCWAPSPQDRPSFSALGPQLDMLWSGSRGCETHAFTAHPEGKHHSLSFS
The settings on record: binder.

The target in a further assay is T2, MAP3K15 (Homo sapiens, UniProt Q6ZN16).
T2 sequence (Q6ZN16 1-1313): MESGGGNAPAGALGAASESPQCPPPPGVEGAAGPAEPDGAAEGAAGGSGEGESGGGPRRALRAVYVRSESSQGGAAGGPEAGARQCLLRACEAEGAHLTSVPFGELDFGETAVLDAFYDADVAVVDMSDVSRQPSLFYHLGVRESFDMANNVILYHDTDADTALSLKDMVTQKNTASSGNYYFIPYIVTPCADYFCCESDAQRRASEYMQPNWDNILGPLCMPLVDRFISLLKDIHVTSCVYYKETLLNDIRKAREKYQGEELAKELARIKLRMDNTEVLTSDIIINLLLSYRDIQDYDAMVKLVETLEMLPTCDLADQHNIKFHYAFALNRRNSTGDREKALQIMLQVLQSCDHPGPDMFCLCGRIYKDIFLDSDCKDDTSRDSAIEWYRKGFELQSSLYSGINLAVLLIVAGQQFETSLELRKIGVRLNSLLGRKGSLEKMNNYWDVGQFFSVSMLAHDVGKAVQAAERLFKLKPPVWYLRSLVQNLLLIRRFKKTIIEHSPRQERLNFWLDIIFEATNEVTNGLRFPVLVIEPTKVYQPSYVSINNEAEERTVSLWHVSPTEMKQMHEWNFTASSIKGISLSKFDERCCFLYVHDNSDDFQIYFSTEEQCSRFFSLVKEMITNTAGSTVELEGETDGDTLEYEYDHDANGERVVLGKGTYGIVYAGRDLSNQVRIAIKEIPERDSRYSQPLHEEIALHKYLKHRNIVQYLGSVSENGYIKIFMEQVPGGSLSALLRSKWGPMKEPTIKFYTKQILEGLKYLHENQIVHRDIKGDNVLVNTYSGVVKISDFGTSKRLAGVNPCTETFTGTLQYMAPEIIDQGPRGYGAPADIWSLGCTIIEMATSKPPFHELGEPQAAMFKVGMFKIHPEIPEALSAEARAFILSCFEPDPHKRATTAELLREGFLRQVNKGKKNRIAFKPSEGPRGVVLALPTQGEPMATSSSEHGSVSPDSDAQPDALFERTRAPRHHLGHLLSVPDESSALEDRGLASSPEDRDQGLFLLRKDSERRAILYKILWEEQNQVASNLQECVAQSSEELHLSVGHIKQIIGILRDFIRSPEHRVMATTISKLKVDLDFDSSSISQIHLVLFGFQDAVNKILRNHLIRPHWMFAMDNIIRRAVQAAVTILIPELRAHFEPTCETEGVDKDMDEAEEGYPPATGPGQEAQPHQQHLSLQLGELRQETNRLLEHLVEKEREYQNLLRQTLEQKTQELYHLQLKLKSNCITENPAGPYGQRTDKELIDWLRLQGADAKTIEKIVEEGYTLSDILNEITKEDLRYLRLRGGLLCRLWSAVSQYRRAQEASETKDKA
To be noted: binder.

Consider `C[C@H](NC(=O)c1c[nH]c2ncc(C3CC3)nc12)C(C)(C)C` [A1, UNC-BE4-017], for which the entries for the “Compound A1 PoC” value at JAK3 and on MAP3K15 were 0.7% and 0%, respectively.
